Results: patent publication US20090069565A1, “NEW INDOLE DERIVATIVES AS FACTOR XA INHIBITORS” (priority 2001, published 2009)

The molecules below were run against human factor Xa (Homo sapiens, UniProt P00742) (assay: Factor Xa assay (chromogenic, substrate S-2765)). Settings: not given.
Type: biochemical
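Also: purified enzyme preincubated with inhibitor for 10 min before substrate addition, final reaction volume 100 µl.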

Chain of human factor Xa (P00742 235-488 limits assumed): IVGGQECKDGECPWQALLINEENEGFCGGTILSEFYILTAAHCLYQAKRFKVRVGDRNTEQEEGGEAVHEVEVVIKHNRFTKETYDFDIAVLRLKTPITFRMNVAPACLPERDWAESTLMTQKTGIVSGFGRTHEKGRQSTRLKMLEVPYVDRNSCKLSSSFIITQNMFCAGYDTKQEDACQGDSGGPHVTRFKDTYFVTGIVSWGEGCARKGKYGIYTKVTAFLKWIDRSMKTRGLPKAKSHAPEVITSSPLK
Chain of human factor Xa (P00742 41-179 partner limits assumed): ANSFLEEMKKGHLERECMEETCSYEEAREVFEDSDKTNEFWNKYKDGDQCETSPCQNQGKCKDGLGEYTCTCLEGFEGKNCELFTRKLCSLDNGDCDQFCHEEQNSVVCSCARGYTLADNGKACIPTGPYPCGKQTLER

Row | Structure (SMILES) | Ki [µM]
1 | CC(C)N1CCC(NC(=O)c2c(C#N)c3ccccc3n2Cc2cc(-c3ccc(Cl)s3)on2)CC1 [Example 160, 1-[5-(5-Chloro-thiophen-2-yl)-isoxazol-3-ylmethyl]-3-cyano-1H-indole-2-carboxylic acid (1-isopropyl-piperidin-4-yl)-amide] | 0.0001
2 | Cc1cccc2c(C#N)c(C(=O)NC3CCN(C(C)C)CC3)n(Cc3cc(-c4ccc(Cl)s4)on3)c12 [Example 161, 1-[5-(5-Chloro-thiophen-2-yl)-isoxazol-3-ylmethyl]-3-cyano-7-methyl-1H-indole-2-carboxylic acid (1-isopropyl-piperidin-4-yl)-amide] | 0.0001
3 | Cc1ccc(C)c2c1cc(C(=O)NC1CCN(C(C)C)CC1)n2Cc1cc(-c2ccc(Cl)s2)on1 [Example 178, 1-[5-(5-Chloro-thiophen-2-yl)-isoxazol-3-ylmethyl]-4,7-dimethyl-1H-indole-2-carboxylic acid (1-isopropyl-piperidin-4-yl)-amide] | 0.0013

Same assay, conditions: inhibition constant for factor Xa; purified enzyme 0.5 nM, substrate S-2765 140 μM, 25° C., pH 7.8; Ki=IC50/{1+(substrate concentration/Km)}; read-out: Ki(FXa)

Row | Structure (SMILES) | Ki [µM]
4 | CC(C)N1CCC(NC(=O)c2cc3ccccc3n2Cc2cc3ccc(Cl)cc3s2)CC1 [Example 119, 1-(6-Chloro-benzo[b]thiophen-2-ylmethyl)-1H-indole-2-carboxylic acid (1-isopropyl-piperidin-4-yl)-amide] | 0.04
5 | CC(C)N1CCC(NC(=O)c2cc3ccccc3n2Cc2nnc(-c3ccc(Cl)s3)s2)CC1 [Example 120, 1-[5-(5-Chloro-thiophen-2-yl)-[1,3,4]thiadiazol-2-ylmethyl]-1H-indole-2-carboxylic acid (1-isopropyl-piperidin-4-yl)-amide] | 0.004
6 | CC(C)N1CCC(NC(=O)c2cc3ccccc3n2Cc2cc(-c3ccc(Cl)s3)no2)CC1 [Example 121, 1-[3-(5-Chloro-thiophen-2-yl)-isoxazol-5-ylmethyl]-1H-indole-2-carboxylic acid (1-isopropyl-piperidin-4-yl)-amide] | 0.003
7 | CC(C)N1CCC(NC(=O)c2c(Cl)c3ccccc3n2Cc2cc(-c3ccc(Cl)s3)on2)CC1 [Example 122, 3-Chloro-1-[5-(5-chloro-thiophen-2-yl)-isoxazol-3-ylmethyl]-1H-indole-2-carboxylic acid (1-isopropyl-piperidin-4-yl)-amide] | 0.002
8 | CC(C)N1CCC(NC(=O)c2c(Br)c3ccccc3n2Cc2cc(-c3ccc(Cl)s3)on2)CC1 [Example 123, 3-Bromo-1-[5-(5-chloro-thiophen-2-yl)-isoxazol-3-ylmethyl]-1H-indole-2-carboxylic acid (1-isopropyl-piperidin-4-yl)-amide] | 0.002
9 | CC(C)N1CCC(NC(=O)c2c(F)c3ccccc3n2Cc2cc(-c3ccc(Cl)s3)on2)CC1 [Example 159, 3-Fluoro-1-[5-(5-chloro-thiophen-2-yl)-isoxazol-3-ylmethyl]-1H-indole-2-carboxylic acid (1-isopropyl-piperidin-4-yl)-amide] | 0.002
10 | CC(C)N1CCC(NC(=O)c2cc3ccccc3n2Cc2cnc(-c3ccc(Cl)s3)s2)CC1 [Example 162] | 0.057
11 | CC(C)N1CCC(NC(=O)c2cc3ccccc3n2Cc2cccc(Cl)c2)CC1 [Example 163, 1-(3-Chloro-benzyl)-1H-indole-2-carboxylic acid (1-isopropyl-piperidin-4-yl)-amide] | 0.654
12 | CC(C)N1CCC(NC(=O)c2cc3ccccc3n2CCc2ccc(Cl)cc2)CC1 [Example 169, 1-[2-(4-Chloro-phenyl)-ethyl]-1H-indole-2-carboxylic acid (1-isopropyl-piperidin-4-yl)-amide] | 0.073
13 | CC(C)N1CCC(NC(=O)c2cc3ccccc3n2CCc2ccc(Cl)cc2Cl)CC1 [Example 170, 1-[2-(2,4-Dichloro-phenyl)-ethyl]-1H-indole-2-carboxylic acid (1-isopropyl-piperidin-4-yl)-amide] | 0.47
14 | Cc1cccc2c1cc(C(=O)NC1CCN(C(C)C)CC1)n2Cc1cc(-c2ccc(Cl)s2)on1 [Example 174, 1-[5-(5-Chloro-thiophen-2-yl)-isoxazol-3-ylmethyl]-4-methyl-1H-indole-2-carboxylic acid (1-isopropyl-piperidin-4-yl)-amide] | 0.003
15 | CC(C)N1CCC(NC(=O)c2cc3cc(C#N)ccc3n2Cc2cc(-c3ccc(Cl)s3)on2)CC1 [Example 176, 1-[5-(5-Chloro-thiophen-2-yl)-isoxazol-3-ylmethyl]-5-cyano-1H-indole-2-carboxylic acid (1-isopropyl-piperidin-4-yl)-amide] | 0.002

Same assay, conditions: read-out: Ki(FXa)

Row | Structure (SMILES) | Ki [µM]
16 | CC(C)N1CCC(NC(=O)c2cc3ccccc3n2Cc2ccc(OC(F)(F)F)cc2)CC1 [Example 146, 1-(4-Trifluoromethoxy-benzyl)-1H-indole-2-carboxylic acid (1-isopropyl-piperidin-4-yl)-amide] | 0.44
17 | CC(C)N1CCC(NC(=O)c2cc3ccccc3n2Cc2ccccc2Cl)CC1 [Example 148, 1-(2-Chloro-benzyl)-1H-indole-2-carboxylic acid (1-isopropyl-piperidin-4-yl)-amide] | 1.93
18 | CC(C)N1CCC(NC(=O)c2cc3ccccc3n2Cc2cc(Cl)cc(Cl)c2)CC1 [Example 157, 1-(3,5-Dichloro-benzyl)-1H-indole-2-carboxylic acid (1-isopropyl-piperidin-4-yl)-amide] | 0.686
19 | CC(C)N1CCC(NC(=O)c2cc3ccccc3n2Cc2cccc(C(N)=O)c2)CC1 [Example 165, 1-(3-Carbamoyl-benzyl)-1H-indole-2-carboxylic acid (1-isopropyl-piperidin-4-yl)-amide] | 0.765
20 | COc1cccc2c1cc(C(=O)NC1CCN(C(C)C)CC1)n2CCc1ccc(Cl)cc1 [Example 172, 1-[2-(4-Chloro-phenyl)-ethyl]-4-methoxy-1H-indole-2-carboxylic acid (1-isopropyl-piperidin-4-yl)-amide] | 0.041
21 | CC(C)N1CCC(NC(=O)c2cc3c(Br)cccc3n2Cc2cc(-c3ccc(Cl)s3)on2)CC1 [Example 173, 4-Bromo-1-[5-(5-chloro-thiophen-2-yl)-isoxazol-3-ylmethyl]-1H-indole-2-carboxylic acid (1-isopropyl-piperidin-4-yl)-amide] | 0.015
22 | CC(C)N1CCC(NC(=O)c2cc3c(C(F)(F)F)cccc3n2Cc2cc(-c3ccc(Cl)s3)on2)CC1 [Example 177, 1-[5-(5-Chloro-thiophen-2-yl)-isoxazol-3-ylmethyl]-4-trifluoromethyl-1H-indole-2-carboxylic acid (1-isopropyl-piperidin-4-yl)-amide] | 0.015
23 | COc1ccc(OC)c2c1cc(C(=O)NC1CCN(C(C)C)CC1)n2Cc1cc(-c2ccc(Cl)s2)on1 [Example 179, 1-[5-(5-Chloro-thiophen-2-yl)-isoxazol-3-ylmethyl]-4,7-dimethoxy-1H-indole-2-carboxylic acid (1-isopropyl-piperidin-4-yl)-amide] | 0.0055
24 | CC(C)N1CCC(NC(=O)c2cc3c(Cl)ccc(Cl)c3n2Cc2cc(-c3ccc(Cl)s3)on2)CC1 [Example 180, 4,7-Dichloro-1-[5-(5-chloro-thiophen-2-yl)-isoxazol-3-ylmethyl]-1H-indole-2-carboxylic acid (1-isopropyl-piperidin-4-yl)-amide] | 0.024
25 | CC(C)N1CCC(NC(=O)c2cc3cc(Cl)cc(Cl)c3n2Cc2cc(-c3ccc(Cl)s3)on2)CC1 [Example 181, 5,7-Dichloro-1-[5-(5-chloro-thiophen-2-yl)-isoxazol-3-ylmethyl]-1H-indole-2-carboxylic acid (1-isopropyl-piperidin-4-yl)-amide] | 0.014
